One series has as its system FLT3-ITD cells. In words: Cell death and cell cycle phase at antiproliferative concentrations. Type of series: cell-based, human. Particulars: at concentrations inhibiting cell proliferation. As for the experimental part: Flow cytometry. Apoptotic cells were detected with Annexin V-FITC detection kit from BD Pharmingen (San Diego, Calif., USA) according to the manufacturer instructions. To evaluate AML cell differentiation, cells were stained for 30 min with the following anti-human monoclonal antibodies: CD11b-PE (Beckman Coulter), CD14-FITC (BD Biosciences), CD15-APC (BD Biosciences). For patient samples, additional hCD45-APC-H7 (BD Biosciences), Annexin V-Pacific Blue (BioLegend, San Diego, Calif., USA) and 7-AAD (Sigma) were used; and for bone marrow mice cells, additional CD33-FITC, CD44-PE Cy7, mCD45-PerCP Cy 5.5, CD14-Alexa 700 were used. Data were collected on a LSRII or a LSRFortessa cytometer (BD Biosciences), and analyzed with FlowJo software. A minimum of 10,000 events was collected.

A short description of series [1]: Preliminary toxicity assays in NSG mice. Type of series: in vivo. The text has this: In vivo experiments. Animals were used in accordance to a protocol reviewed and approved by the Institutional Animal Care and User Ethical Committee of the UMS006 and Region Midi-Pyrénées (Approval#13-U1037-JES08). NOD/LtSz-scid IL-2Rγchainnull (NSG) mice (Sanchez P V et al) were produced at the Genotoul Anexplo platform in Toulouse (France) using breeders obtained from The Charles River Laboratory. Mice were housed in sterile conditions using HEPA filtered micro-isolators and fed with irradiated food and acidified water. Transplanted mice were treated with antibiotics (enrofloxacin) for the duration of the experiment. […] Adult mice (6 or 7-week old) were treated with 20 mg/kg Busulfan (Busilvex, Pierre Fabre, France) by i.p. administration 24 hours before injection of leukemic cells. Cultured MOLM-14 cells were washed in PBS and cleared of aggregates and debris using a 0.2 mm cell filter, and suspended in PBS at a final concentration of 2 million cells per 200 μL of PBS per mouse for i.v. injection. IRC-083864 (5 mg/kg/week) was then administrated to leukemic mice by i.p. injection. Daily monitoring of mice for symptoms of disease (ruffled coat, hunched back, weakness and reduced motility) determined the time of animal euthanasia. Cell differentiation was monitored after two IRC-083864 injections: mice were humanely killed in accordance with IACUC protocols. […]

In series [2] the test system is KG1 cells (FLT3 wild type). In words: Cell proliferation, trypan blue counting, KG1. Type of series: cell-based, human. As for the experimental part:
(a) MV4-11 and MOLM-14 FLT3-ITD positive cells, KG1, HL-60 and TF-1 FLT3 wild type cells, and K562 FLT3 negative cells were cultured in the presence of the CDC25 inhibitor IRC-083864 (200 nM). Cells were harvested each day and counted after trypan blue coloration. The graph represents three independent experiments.
Cell lines and reagents. Human acute myeloid leukemia cell lines MOLM-14 (Matsuo Y et al, Leukemia 1997) (kindly provided by Martin Carroll, University of Pennsylvania, Philadelphia, Pa., USA) MV4-11, K562 (ACC-102 and ACC-10, DSMZ, Braunschweig, Germany) and FLT3-ITD-expressing murine BaF3 cells were cultured in RPMI 1640 medium (Gibco, Life Technologies, Carlsbad, Calif., USA) supplemented with 10% fetal bovine serum (Sigma, Saint Louis, Calif., USA). TF-1 (ATCC-CRL2003) cells were cultured in RPMI 1640 medium with 10% fetal bovine serum and GM-CSF 2 ng/ml. Concerning MOLM-14 cell line, the presence of a monoallelic 21 bp FLT3-ITD mutation and of an MLL-containing ins(11; 9)(q23;p22p23) were verified (Hematology laboratory of Toulouse University Hospital, Prof E. Delabesse and Dr I. Luquet). KG1 and HL-60 (ACC-14 and ACC-3, DSMZ) cell lines were grown in Iscove's Modified Dulbecco's Medium (IMDM, Gibco) plus 20% FBS. […]
siRNA. […] Twenty-four or forty-eight hours after transfection, cells were counted (trypan blue staining), and western blotting was performed.

For the compound `Cc1nc2c(s1)C(=O)C=C(NCCCN(C)CCCNC1=CC(=O)c3nc(-c4cc(F)ccc4F)oc3C1=O)C2=O` [IRC-083864], in the series on FLT3-ITD cells, the “accumulation in a phase of the cell cycle” value is “nor accumulation in a particular phase of the cell cycle” and the cell death result is listed as “did not induce neither significant cell death”. Further, the “toxicity in male versus female NSG mice” value in series [1] is on record as “higher toxicity”. In addition, the “proliferation of KG1” value in series [2] (200 nM) is “did not decrease”. Moreover, the “proliferation of KG1 upon stimulation by FLT3 ligand” value in series [2] (FLT3 ligand stimulation) was “had no effect”.

The values above are taken from patent publication US10179914B2, “CDC25A inhibitor for the treatment of drug resistant cancer or for the prevention of tumor relapse” (INSERM (INSTITUT NATIONAL DE LA SANTÉ ET DE LA RECHERCHE …, priority 2014, dated 2019).
